Values after ≈ are worked out from the molar mass of the structure shown. “Also recorded” adds a separate entry of the source. Non-standard residues stand in square brackets, D forms with d. Residues, ends and D or L forms follow the SMILES beside them. *: point of attachment. 12Ado = NCCCCCCCCCCCC(=O)O; Decanoyl = CCCCCCCCCC(=O)*; Orn = NCCC[CH](N)C(=O)O
Assays:
[1] = Charge at physiological pH (Q); type: physicochemical
Hemolytic assay = type: cell-based; conditions: fresh mouse red blood cells (1%); hemolysis of 50% of mouse red blood cells (1%) after 3 hours in PBS; read-out: LC50, fifty percent lethal concentration (hemolysis)
Protocol: Organization of the compounds in aqueous solution was assessed by light-scattering measurements in phosphate buffered saline (PBS; 10 mM Na2HPO4, 150 mM NaCl, pH=7.0). Hemolytic assays were performed as described elsewhere, using fresh mouse red blood cells.
The mean value (±SD) is shown for Compound C; Minimum inhibitory concentration (MIC) of compounds required to inhibit bacterial proliferation after overnight incubation.

K. pneumoniae = assay: Minimal bactericidal concentration; type: cell-based; conditions: Klebsiella pneumoniae
[2] = test system: Escherichia coli mutant ML-35p; assay: Outer and cytoplasmic membrane permeabilization (nitrocefin / ONPG); type: cell-based; conditions: E. coli ML-35p, buffer, 16 minutes after addition
Protocol: Membrane permeabilization was assessed using E. coli ML-35p as described elsewhere, to monitor the ability of the compounds to perturb the outer and/or cytoplasmic membranes. Reported data were obtained from ≥2 independent experiments performed in duplicate.
Additional support for this view was obtained by comparing the compounds' susceptibility to damage gram-negative bacteria membranes, using the E. coli mutant ML-35p. Widely described in the literature, the mutant was considered herein as representative of all gram-negative bacteria, rather than a specific species. This mutant is constitutive for cytoplasmic β-galactosidase, lacks lactose permease, and expresses a plasmid-encoded periplasmic β-lactamase. Two chromogenic reporter molecules (nitrocefin and 2-nitrophenyl β-d-galactopyranoside, respectively, absorbing at 486 and 420 nm) were used to monitor permeabilization of the outer membrane and/or cytoplasmic membrane in a single assay.

Escherichia coli 25922 [3] = assay: Checkerboard assay with lysozyme in broth medium; type: cell-based
Protocol: (§1) Inhibition was determined after 24 hours of incubation.

[4] = test system: Klebsiella pneumoniae 1287; assay: Checkerboard assay with lysozyme in broth medium; type: cell-based; conditions: growth medium, 2.5, 5, 10 μM Compound B combined with lysozyme, 24 hours
Protocol: as §1

E. coli 25922 [5] = assay: Growth kinetics by absorbance at 620 nm; type: cell-based, Escherichia coli; conditions: 10 μM Compound B, culture medium
Protocol: FIGS. 6A-B present growth kinetics assessed by measuring the absorbance at 620 nm of E. coli 25922 (FIG. 6A) and K. pneumoniae 1287 (FIG. 6B) in absence or presence of the 10 μM of Compound B (circles denote vehicle control, triangles denote Compound B; error bars represent standard deviations).

Escherichia coli 25922 [6] = assay: Mouse thigh infection model; type: in vivo; conditions: normal mice inoculated intramuscularly, treated s.c. 1 hour thereafter, CFU 24 hours post-treatment
Protocol: (§2) Mouse thigh infection model was afforded from normal ICR mice, which were inoculated intramuscularly and treated subcutaneously 1 hour thereafter with a tested compound or polymyxin B (PMB; Sigma-Aldrich) as described elsewhere. P values were calculated using a 1-tailed t test (assuming unequal variance). A P value of <0.05 is considered statistically significant.

[7] = test system: Klebsiella pneumoniae 1287; assay: Mouse thigh infection model; type: in vivo; conditions: normal mice inoculated intramuscularly, treated s.c. 1 hour thereafter
Protocol: as §2

E. coli 25922 [8] = assay: Cytoplasmic membrane depolarization (DiSC35); type: cell-based, Escherichia coli; conditions: low Compound B concentrations
Protocol: Cytoplasmic membrane depolarization measurements were assessed by monitoring the displacement of 3,39-dipropylthiadicarbocyanine iodide (DiSC35), a lipophilic potentiometric dye. Mid-logarithmic phase E. coli 25922 at OD 0.6 nm was centrifuged for 5 min at 15,000 g. The pellet was washed twice with 5 mM HEPES containing 5 mM glucose and 2 mM EDTA before addition of DiSC35 ([…]) and quenching at room temperature in the dark for 1 hour. KCl was then added (100 mM) and the suspension incubated overnight (4° C.). One hundred eighty microliters of this bacterial suspension was placed in a black 96-well plate, and fluorescence was recorded until signal stabilization (excitation 620 nm, emission 680 nm). Thereafter […] of the tested compound was added and the fluorescence recorded for up to 30 minutes at 37° C. with shaking. Data were obtained from at least 2 independent experiments performed in duplicate.
(FU denotes fluorescence units; triangles denote Compound B, circles denote PMB, squares denote untreated control; error bars=SD).

[9] = test system: resistance—nodulation—division deletion mutant; assay: MIC on efflux mutant; type: cell-based; conditions: Escherichia coli
Source text: (§3) The following strains were used for the studies below: Escherichia coli strain ML-35p (American Type Culture Collection [ATCC]; […]. The following gram-positive species was investigated: methicillin-resistant Staphylococcus aureus clinical isolate USA300 10017 (a gift from Dr. Gili Regev-Yochay, Infectious Disease Unit, Sheba Medical Center, Israel). Additional Escherichia coli strains tested include β-lactamase producer 35218; clinical isolate strains 14182, 14384, and U16327; and two K12 isogenic mutants, AG100 and AG100A. Unless otherwise stated, all bacterial cultures were grown overnight in Luria-Bertani broth (LB).
(§4) Minimal inhibitory concentrations (MICs) were determined as previously described. […] MICs were determined by microdilution susceptibility testing in 96-well plates (by Nunc) using inocula of 10^5 bacteria per ml. Cell populations were evaluated by optical density measurements at 620 nm and were calibrated against a set of standards. Hundred (100) μl of a bacterial suspension were added to 100 μl of culture medium (control) or to 100 μl of culture medium containing various tested compound concentrations in 2-fold serial dilutions. Inhibition of proliferation was determined by optical density measurements at 620 nm after an incubation period of 24 hours at 37° C. Data were obtained from ≥2 independent experiments performed in duplicate.

[10] = test system: wild-type isogenic strain; assay: MIC on wild-type isogenic strain; type: cell-based; conditions: Escherichia coli, data not shown
Source text: as §3, §4

CCCCCCCCCC(=O)NC(CCCN)C(=O)NC(CCCN)C(=O)NCCCCCCCCCCCC(=O)NC(CCCN)C(N)=O (centres unmarked) [Compound B] (Decanoyl-[Orn][Orn][12Ado][Orn]-NH2; configuration not given here)
Q, charge at physiological pH [1]: 3
CC50 at 3 h (Hemolytic assay): > 100 µM
MBC (K. pneumoniae): > 50 µM
cytoplasmic membrane permeabilization [2]: similarly unable to permeabilize the cytoplasmic membrane at least up to approximately 10 μM; also recorded: some CM permeabilization occurred only at 10 mM
outer membrane permeabilization [2]: similarly potent in inducing outer membrane permeabilization; also recorded: as efficient as dermaseptin in altering outer membrane permeability
growth inhibition in combination with lysozyme (Escherichia coli 25922 [3]; growth medium, 2.5, 5, 10 μM Compound B combined with lysozyme, 24 hours): dose-dependent synergistic growth inhibition
E. coli counts (final, from 4 log) (Escherichia coli 25922 [3]; medium, 10 μM Compound B plus 18 μM lysozyme): 9 log CFU/mL
growth inhibition in combination with lysozyme [4]: dose-dependent synergistic growth inhibition
growth kinetics in presence vs absence of compound (E. coli 25922 [5]): practically identical curves
reduction of the number of inoculated E. coli (Escherichia coli 25922 [6]): 80%
effect on proliferation in thigh [7]: significantly inhibited proliferation
CM depolarization (DiSC35 fluorescence) (E. coli 25922 [8]): partial depolarization of the CM
MIC [9]: 6.3 µM (≈ 4.48 µg/mL)
MIC [10]: > 50 µM
